Each structure is given as a SMILES string.

Data set [1] in a line: in vitro. Further details: dose or concentration left out as unconfirmed. The conditions noted are these: mouse, liver microsomes. Background: Liver microsomes are a subcellular fraction often used to study metabolism.
A short description of data set [2]: in vitro. More on the design: dose or concentration left out as unconfirmed. The conditions noted are these: human, liver microsomes.

A word on the CLint scaled: it is the rate of metabolic loss divided by the concentration. For the compound `CC(C)c1ccc(CC(=O)N2CCN(c3ccc(C#N)nn3)CC2)cc1`, the CLint scaled at 4 h in data set [1] turned out to be 408 mL/min/kg; in data set [2], 175 mL/min/kg.

Values taken from ChEMBL document CHEMBL5576147, “Development of Brain Penetrant Pyridazine Pantothenate Kinase Activators” (J Med Chem, 2024).
